One test concerns the target T1, mouse CD38 (Mus musculus, UniProt P56528).
T1 sequence (P56528 1-304): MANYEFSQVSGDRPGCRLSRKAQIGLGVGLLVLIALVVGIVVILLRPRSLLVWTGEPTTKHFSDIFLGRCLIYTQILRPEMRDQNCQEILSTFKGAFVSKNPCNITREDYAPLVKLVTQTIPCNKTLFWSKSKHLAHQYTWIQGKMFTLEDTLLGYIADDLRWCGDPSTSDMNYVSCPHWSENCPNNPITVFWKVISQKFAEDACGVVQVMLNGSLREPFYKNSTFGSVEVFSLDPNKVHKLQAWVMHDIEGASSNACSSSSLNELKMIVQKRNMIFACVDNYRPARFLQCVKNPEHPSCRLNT
The test is described as follows: mouse recombinant CD38 enzyme assay (hydrolysis of NAD+). The test is classed as biochemical. To be noted: read-out: mCD38 BioChem IC50. The procedure, abridged:
(§1)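 Residual NAD+ after 60 min of cell-free hydrolysis by recombinant mouse or human CD38 at ambient temperature, measured over a dose range. Detection used ADH conversion to NADH, then diaphorase-coupled resazurin-to-resorufin fluorescence (Ex/Em 540/590 nm).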

A further test concerns the target T2, human CD38 (Homo sapiens, UniProt P28907).
T2 sequence (P28907 1-300): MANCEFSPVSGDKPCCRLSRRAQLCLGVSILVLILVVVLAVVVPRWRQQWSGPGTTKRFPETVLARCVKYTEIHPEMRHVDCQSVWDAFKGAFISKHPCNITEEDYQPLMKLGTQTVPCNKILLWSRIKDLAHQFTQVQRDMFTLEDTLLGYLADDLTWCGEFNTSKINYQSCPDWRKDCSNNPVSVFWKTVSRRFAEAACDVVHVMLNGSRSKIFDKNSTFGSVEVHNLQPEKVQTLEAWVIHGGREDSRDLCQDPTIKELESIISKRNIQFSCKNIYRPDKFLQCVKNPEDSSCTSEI
Nature of the test: human recombinant CD38 enzyme assay (hydrolysis of NAD+). It counts as biochemical. The settings on record: human recombinant CD38, 0.4 nM enzyme, 62.5 μM NAD+; read-out: hCD38 BioChem IC50. In outline:
as §1

In test [1] the target is T3, endogenous CD38 in HL60 cells (Homo sapiens, UniProt P28907).
T3 construct: endogenous in cells; host or cells: HL60 (leukemic cells, treated with all-trans retinoic acid)
T3 sequence (P28907 1-300): T2 sequence (P28907 1-300)
Nature of the test: cellular CD38 assay in HL60 cells (cellular NAD levels). It counts as cell-based. To be noted: all-trans retinoic acid, 24 hours, read-out: hCD38 HL60 ATRA NAD Cell Diaphorase IC50. The method, then: The compounds described herein were also assayed for their ability to inhibit the endogenous CD38 in a native cellular environment in the cellular CD38 assay, which measures the ability of the compound to modulate cellular NAD levels. […] The assays were initiated by plating 20 μL of HL60 cells in culture medium, at a density of 20000 cells per well to a 384-well Corning™ Multiwell Plates. Compounds in DMSO were added to the plates in a volume of 120 nL using the Labcyte Echo Liquid Handlers. […] The plates are then incubated for 24 hours. 50 μL of a readout-solution containing 0.2 U/mL Diaphorase enzyme, 40 uM resazurin, 10 uM FMN, 0.8 U/mL Alcohol dehydrogenase, 3% ethanol, 0.4 mg/mL bovine serum albumin, 0.2% Triton X-100 in 100 mM Tris-HCl, 30 mM EDTA, pH 8.4. The plates were read for fluorescence (Excitation/Emission=540 nm/590 nm) using an EnVision plate reader after 60 mins of incubation at ambient temperature. Note that, in Table 5, the “Compound No” corresponds to the compound numbers in Table 1.

As for `O=C(Nc1ccc(C(F)(F)F)nc1)c1cccc(-n2ccnc2)n1` [Compound 13, 6-(1H-imidazol-1-yl)-N-(6-(trifluoromethyl)pyridin-3-yl)picolinamide], the concentration for half-maximal inhibition (IC50) came out at 8 nM on mouse CD38, 6 nM on human CD38 and 568 nM in test [1].

Take `COCCO[C@H]1CC[C@H](NC(=O)c2cccc(-n3ccnc3)n2)CC1` [Compound 14, 6-(1H-imidazol-1-yl)-N-(4-(2-methoxyethoxy)cyclohexyl)picolinamide]: the IC50 at mouse CD38 stood at 17 nM; on human CD38, 91 nM; in test [1] it was 3290 nM.

On to `O=C(NC12CC(O)(C1)C2)c1cccc(-n2ccnc2)n1` [Compound 15, N-(3-hydroxybicyclo[1.1.1]pentan-1-yl)-6-(1H-imidazol-1-yl)picolinamide], for which the IC50 was determined as 748 nM at mouse CD38, 1140 nM on human CD38 and 9960 nM in test [1].

Consider `O=C(NC12CC(C1)C2)c1cccc(-n2ccnc2)n1` [Compound 16, N-(bicyclo[1.1.1]pentan-1-yl)-6-(1H-imidazol-1-yl)picolinamide], for which the figures for the concentration for half-maximal inhibition (IC50) (at mouse CD38; on human CD38; in test [1]) were 760 nM, 1510 nM and 7390 nM, respectively.

As for `O=C(Nc1ccccc1F)c1cccc(-n2ccnc2)n1` [Compound 17, N-(2-fluorophenyl)-6-(1H-imidazol-1-yl)picolinamide], the 50% inhibitory concentration (IC50) on mouse CD38 was found to be 27 nM; at human CD38, 67 nM; in test [1] it was 1400 nM.

For the compound `O=C(Nc1cccc(F)c1)c1cccc(-n2ccnc2)n1` [Compound 18, N-(3-fluorophenyl)-6-(1H-imidazol-1-yl)picolinamide], the results for the IC50 (on mouse CD38; at human CD38; in test [1]) were 6 nM, 6 nM and 415 nM, respectively.

On to `O=C(Nc1ccc(F)cc1)c1cccc(-n2ccnc2)n1` [Compound 19, N-(4-fluorophenyl)-6-(1H-imidazol-1-yl)picolinamide], for which the IC50 on mouse CD38 worked out at 9 nM; on human CD38, 7 nM; in test [1], 345 nM.

On to `Cc1ccc(NC(=O)c2cccc(-n3ccnc3)n2)cn1` [Compound 20, 6-(1H-imidazol-1-yl)-N-(6-methylpyridin-3-yl)picolinamide], for which the IC50 on mouse CD38 turned out to be 8 nM; on human CD38 it was 9 nM; in test [1], 365 nM.

Regarding `Cc1cc(NC(=O)c2cccc(-n3ccnc3)n2)ccn1` [Compound 21, 6-(1H-imidazol-1-yl)-N-(2-methylpyridin-4-yl)picolinamide], the results for the 50% inhibitory concentration (IC50) (on mouse CD38; on human CD38; in test [1]) were 3 nM, 3 nM and 273 nM, respectively.

On to `Cc1ccc(C(=O)Nc2cccnc2)nc1-n1ccnc1` [Compound 22, 6-(1H-imidazol-1-yl)-5-methyl-N-(pyridin-3-yl)picolinamide], for which the figures for the IC50 (on mouse CD38; at human CD38; in test [1]) were 70 nM, 496 nM and 802 nM, respectively.

As for `CO[C@H]1C[C@H](NC(=O)c2cccc(-n3ccnc3)n2)C1` [Compound 23, 6-(1H-imidazol-1-yl)-N-(3-methoxycyclobutyl)picolinamide], the IC50 is 110 nM at mouse CD38, 614 nM at human CD38 and 3890 nM in test [1].

With `O=C(Nc1ccc(F)cc1F)c1cccc(-n2ccnc2)n1` [Compound 24, N-(2,4-difluorophenyl)-6-(1H-imidazol-1-yl)picolinamide], the concentration for half-maximal inhibition (IC50) is 45 nM on mouse CD38, 104 nM on human CD38 and 1660 nM in test [1].

Take `COc1ccc(NC(=O)c2cccc(-n3ccnc3)n2)cn1` [Compound 25, 6-(1H-imidazol-1-yl)-N-(6-methoxypyridin-3-yl)picolinamide]: the IC50 on mouse CD38 came to 13 nM; on human CD38, 13 nM; in test [1], 468 nM.

With `Cc1ccc(-n2ccnc2)nc1C(=O)Nc1cccnc1` [Compound 26, 6-(1H-imidazol-1-yl)-3-methyl-N-(pyridin-3-yl)picolinamide], the IC50 at mouse CD38 was 7 nM; at human CD38, 16 nM; in test [1], 629 nM.

Regarding `Cc1ncccc1NC(=O)c1cccc(-n2ccnc2)n1` [Compound 27, 6-(1H-imidazol-1-yl)-N-(2-methylpyridin-3-yl)picolinamide], the IC50 was 64 nM at mouse CD38, 448 nM at human CD38 and 10400 nM in test [1].

Consider `Cc1cc(C(F)(F)F)ncc1NC(=O)c1cccc(-n2ccnc2)n1` [Compound 29, 6-(1H-imidazol-1-yl)-N-(4-methyl-6-(trifluoromethyl)pyridin-3-yl)picolinamide], for which the IC50 was determined as 110 nM on mouse CD38, 389 nM on human CD38 and 8550 nM in test [1].

Take `O=C(N[C@H]1CC[C@H](O)CC1)c1cccc(-n2ccnc2)n1` [Compound 30, N-(4-hydroxycyclohexyl)-6-(1H-imidazol-1-yl)picolinamide]: the IC50 amounted to 14 nM on mouse CD38, 85 nM at human CD38 and 2830 nM in test [1].

As to `O=C(N[C@H]1CC[C@@H](O)CC1)c1cccc(-n2ccnc2)n1` [Compound 31, N-(4-hydroxycyclohexyl)-6-(1H-imidazol-1-yl)picolinamide], the figures for the IC50 (at mouse CD38; at human CD38; in test [1]) were 205 nM, 479 nM and 15700 nM, respectively.

Turning to `Cc1cc(C(=O)Nc2cccnc2)nc(-n2ccnc2)c1` [Compound 32, 6-(1H-imidazol-1-yl)-4-methyl-N-(pyridin-3-yl)picolinamide], the IC50 at mouse CD38 is 1 nM; at human CD38 it was 3 nM; in test [1], 264 nM.

Consider `Cc1cccc(NC(=O)c2cccc(-n3ccnc3)n2)n1` [Compound 33, 6-(1H-imidazol-1-yl)-N-(6-methylpyridin-2-yl)picolinamide], for which the values for the IC50 (on mouse CD38; on human CD38; in test [1]) were 228 nM, 313 nM and 13700 nM, respectively.

In the case of `O=C(Nc1ccc(F)c(F)c1)c1cccc(-n2ccnc2)n1` [Compound 34, N-(3,4-difluorophenyl)-6-(1H-imidazol-1-yl)picolinamide], the IC50 at mouse CD38 was 6 nM; on human CD38, 4 nM; in test [1] it was 509 nM.

As to `Cc1cc(C(=O)Nc2cccnc2)nc(-c2cncs2)c1` [Compound 35, 4-methyl-N-(pyridin-3-yl)-6-(thiazol-5-yl)picolinamide], the IC50 stood at 68 nM at mouse CD38, 210 nM at human CD38 and 3570 nM in test [1].

Consider `O=C(Nc1cccnc1)c1nccc(-n2ccnc2)n1` [Compound 36, 4-(1H-imidazol-1-yl)-N-(pyridin-3-yl)pyrimidine-2-carboxamide], for which the IC50 at mouse CD38 was determined as 14 nM; at human CD38, 5 nM; in test [1], 187 nM.

Take `O=C(Nc1cccnc1)c1ccnc(-n2ccnc2)n1` [Compound 37, 2-(1H-imidazol-1-yl)-N-(pyridin-3-yl)pyrimidine-4-carboxamide]: the IC50 was determined as 6 nM at mouse CD38, 4 nM on human CD38 and 339 nM in test [1].

Regarding `O=C(Nc1ccnc(C(F)(F)F)c1)c1cccc(-n2ccnc2)n1` [Compound 38, 6-(1H-imidazol-1-yl)-N-(2-(trifluoromethyl)pyridin-4-yl)picolinamide], the IC50 on mouse CD38 is 7 nM; at human CD38, 10 nM; in test [1], 873 nM.

On to `O=C(Nc1ccnc(C(F)F)c1)c1cccc(-n2ccnc2)n1` [Compound 39, N-(2-(difluoromethyl)pyridin-4-yl)-6-(1H-imidazol-1-yl)picolinamide], for which the IC50 is 4 nM at mouse CD38, 6 nM on human CD38 and 298 nM in test [1].

Take `O=C(Nc1cccnc1)c1cc(C(F)(F)F)cc(-n2ccnc2)n1` [Compound 40, 6-(1H-imidazol-1-yl)-N-(pyridin-3-yl)-4-(trifluoromethyl)picolinamide]: the IC50 at mouse CD38 is 2 nM; at human CD38 it was 6 nM; in test [1], 959 nM.

As to `O=C(Nc1ccc(C(F)(F)F)nc1)c1nc(-n2ccnc2)ccc1F` [Compound 42, 3-fluoro-6-(1H-imidazol-1-yl)-N-(6-(trifluoromethyl)pyridin-3-yl)picolinamide], the IC50 at mouse CD38 was 8 nM; on human CD38 it was 9 nM; in test [1], 903 nM.
